Here are results for 74 sequences from the OligoGym collection.

Several values for one entry are separate records, joined by “and”; a condition that tells them apart may be missing. Equal values may be shown once. After the bases stand the sugars from the 5' end (letter, count) and the backbone: PS all phosphorothioate, else s phosphorothioate and o phosphodiester by linkage. Methylation of C is not given here. e = 2'-O-(2-methoxyethyl) (MOE); l = locked nucleic acid (LNA); k = constrained ethyl (cEt); d = 2'-deoxy (DNA)

For one data set, the target named is ANGPTL2. As to conditions: ASO.
The target of another data set is MYH7. As to conditions: ASO, CC-2580, 5 µM.
The target in the next data set is KRAS. The following applies: ASO.

Take “TTGATGATGCGGTTGTAGG (sugars l2 d15 l2, PS)”: the target mRNA inhibition with ANGPTL2 (5 µM) worked out at 55.3%; with ANGPTL2 (25 µM) it was 67.3%.

In the case of “CAGCTTGGCGATGATCT (sugars llddddddlddldldll, PS)”, in the data set with MYH7, the target mRNA inhibition is 2% and 0%.

Take CTCCGGTAATGGCCC (sugars l1 d12 l2, PS): the target mRNA inhibition was -5% in the data set with ANGPTL2 (5 µM) and 15.6% in the data set with ANGPTL2 (25 µM).

Turning to “CAGCTTGGCGATGATCT (sugars l1 d9 l4 d1 l2, PS)”, in the data set with MYH7, the target mRNA inhibition is -1% and -10%.

“CAGCTTGGCGATGATCT (sugars lldldldddldddddll, PS)”: the target mRNA inhibition in the data set with MYH7 was -1% and -7%.

Turning to “GCTGGAAAGAGGGATAGA (sugars l2 d14 l2, PS)”, the target mRNA inhibition with ANGPTL2 (5 µM) amounted to 60.7%; in the data set with ANGPTL2 (25 µM), 66.2%.

In the case of “CAGCTTGGCGATGATCT (sugars l2 d12 l3, PS)”, the target mRNA inhibition with MYH7 was 67% and 45%.

As to “CTTGGCAATGATCTCATCC (sugars ldddddddldllddlddll, PS)”, the target mRNA inhibition in the data set with MYH7 was 43% and 24%.

On to “CTTGGCAATGATCTCATCC (sugars ldlddddddldlddlddll, PS)”, for which the target mRNA inhibition in the data set with MYH7 is 48% and 33%.

As for “CAGCTTGGCGATGATCT (sugars lldlldlddldddddll, PS)”, the target mRNA inhibition with MYH7 is -6% and 1%.

For the sequence “TTGGACAACTAGGCAGCA (sugars l3 d13 l2, PS)”, the results for the target mRNA inhibition with ANGPTL2 (5 µM) and with ANGPTL2 (25 µM) were 38.8% and 60.3%, respectively.

As for “CAGCTTGGCGATGATCT (sugars l2 d7 l1 d4 l3, PS)”, the target mRNA inhibition with MYH7 is 18% and -5%.

For the sequence “GAACCATTTTGAGATTCCC (sugars l1 d16 l2, PS)”, the target mRNA inhibition in the data set with ANGPTL2 (5 µM) was 27.6%; with ANGPTL2 (25 µM) it was 7.84%.

For the sequence “TCAGCTTGGCGATGATCT (sugars lddldddddddlddldll, PS)”, the target mRNA inhibition with MYH7 was found to be 21%.

Consider “CAGCTTGGCGATGATCT (sugars llddddlddddldldll, PS)”, for which the target mRNA inhibition with MYH7 is 15% and 5%.

With “CAGCTTGGCGATGATCT (sugars lldddldddddddldll, PS)”, the target mRNA inhibition in the data set with MYH7 is 28% and 4%.

As to “CTTGGCAATGATCTCATCC (sugars lddddddlddllddlddll, PS)”, the target mRNA inhibition with MYH7 was 34% and 17%.

With “TCAGCTTGGCGATGATCT (sugars lddldldlddddddldll, PS)”, the target mRNA inhibition with MYH7 is 25% and 4%.

Take “CAGCTTGGCGATGATCT (sugars lddlllddlddddddll, PS)”: the target mRNA inhibition in the data set with MYH7 is 12% and 3%.

For the sequence “TCAGCTTGGCGATGATCT (sugars llddlddddddldlddll, PS)”, in the data set with MYH7, the target mRNA inhibition is 21% and 1%.

Consider “TCAGCTTGGCGATGATCT (sugars l2 d7 l1 d4 l4, PS)”, for which the target mRNA inhibition with MYH7 was 36% and 34%.

For the sequence “TAGTGGGCACAGTTTCC (sugars l1 d14 l2, PS)”, the target mRNA inhibition was determined as 21.2% with ANGPTL2 (5 µM) and 36.4% with ANGPTL2 (25 µM).

Take “CTTGGCAATGATCTCATCC (sugars ldddddlldlddlddddll, PS)”: the target mRNA inhibition with MYH7 was 30% and 22%.

With “CAGCTTGGCGATGATCT (sugars lldddddddldldldll, PS)”, in the data set with MYH7, the target mRNA inhibition was 1% and -1%.

Take “CAGGTGCTGGTACTTGTG (sugars l1 d15 l2, PS)”: the target mRNA inhibition in the data set with ANGPTL2 (5 µM) was found to be 40.4%; with ANGPTL2 (25 µM), 54.2%.

As for CCAGCCGCAGCTTATA (sugars l1 d13 l2, PS), the target mRNA inhibition stood at 21.8% with ANGPTL2 (5 µM) and 35.3% with ANGPTL2 (25 µM).

“CTTGGCAATGATCTCATCC (sugars llddddddldllddlddll, PS)”: in the data set with MYH7, the target mRNA inhibition was 34% and 10%.

For “CAGCTTGGCGATGATCT (sugars lldlddddddldlddll, PS)”, the target mRNA inhibition in the data set with MYH7 was 4% and -20%.

For the sequence “CTATCCTCTCCCAAACATG (sugars l1 d16 l2, PS)”, the target mRNA inhibition worked out at 16% with ANGPTL2 (5 µM) and 24.1% in the data set with ANGPTL2 (25 µM).

Regarding “CAGCTTGGCGATGATCT (sugars ldldlddddddlddlll, PS)”, the target mRNA inhibition in the data set with MYH7 is 38% and 29%.

As to “TCAGCTTGGCGATGATCT (sugars lddlddlddddddlldll, PS)”, the target mRNA inhibition with MYH7 was 12% and -5%.

“CTTGGCAATGATCTCATCC (sugars ldddddldddldlddldll, PS)”: the target mRNA inhibition in the data set with MYH7 was 31% and 22%.

In the case of “TCAGCTTGGCGATGATCT (sugars l3 d11 l4, PS)”, in the data set with MYH7, the target mRNA inhibition is 68% and 52%.

With “AGGCCAACACTAACTCG (sugars l2 d13 l2, PS)”, the target mRNA inhibition in the data set with ANGPTL2 (5 µM) was 70.5%; with ANGPTL2 (25 µM), 78.8%.

In the case of “GCAAAGGTCAGAAACATC (sugars l3 d12 l3, PS)”, the results for the target mRNA inhibition in the data set with ANGPTL2 (5 µM) and with ANGPTL2 (25 µM) were 28.8% and 37.7%, respectively.

Turning to “TGAAGGAAAGTAGGAGGGA (sugars l1 d15 l3, PS)”, the target mRNA inhibition is 10.6% in the data set with ANGPTL2 (5 µM) and 16.5% with ANGPTL2 (25 µM).

Regarding “TCAGCTTGGCGATGATCT (sugars ldlldldldddddddlll, PS)”, the target mRNA inhibition in the data set with MYH7 was 30% and 26%.

Take “CAGCTTGGCGATGATCT (sugars lddlldddddldlddll, PS)”: the target mRNA inhibition in the data set with MYH7 was 8% and -2%.

For “ACAGGGAAAGAATTTGGGTC (sugars l1 d16 l3, PS)”, the target mRNA inhibition is 44.4% with ANGPTL2 (5 µM) and 37.5% in the data set with ANGPTL2 (25 µM).

For the sequence “CTTGGCAATGATCTCATCC (sugars l2 d5 l1 d7 l4, PS)”, the target mRNA inhibition with MYH7 was 69% and 45%.

Consider “ACAAGCCAGTTGTATGT (sugars l1 d12 l4, PS)”, for which the figures for the target mRNA inhibition in the data set with ANGPTL2 (5 µM) and with ANGPTL2 (25 µM) were 58.2% and 72.3%, respectively.

Consider “AACCATTTTGAGATTCC (sugars l4 d11 l2, PS)”, for which the target mRNA inhibition was found to be 67.7% in the data set with ANGPTL2 (5 µM) and 81.3% with ANGPTL2 (25 µM).

In the case of “TTGAGATTCCCCCAAAG (sugars l2 d11 l4, PS)”, the values for the target mRNA inhibition with ANGPTL2 (5 µM) and in the data set with ANGPTL2 (25 µM) were 28.3% and 41.2%, respectively.

As for “GAACCATTTTGAGATTCC (sugars l3 d13 l2, PS)”, the figures for the target mRNA inhibition in the data set with ANGPTL2 (5 µM) and with ANGPTL2 (25 µM) were 56.6% and 52%, respectively.

For the sequence “CAGCTCATTGTTGAGCA (sugars l2 d13 l2, PS)”, the target mRNA inhibition with ANGPTL2 (5 µM) was determined as 0.32%.

For “TGCTGGGGCACAATGAA (sugars l2 d12 l3, PS)”, the figures for the target mRNA inhibition with ANGPTL2 (5 µM) and with ANGPTL2 (25 µM) were 28.2% and 2.72%, respectively.

For the sequence “AGTTGATAGTTTATCTCC (sugars l2 d14 l2, PS)”, the target mRNA inhibition in the data set with ANGPTL2 (5 µM) came out at 51.7%; in the data set with ANGPTL2 (25 µM) it was 64.9%.

Consider “GAGTTGAAGGGAGGTGC (sugars l1 d14 l2, PS)”, for which the target mRNA inhibition with ANGPTL2 (5 µM) is 17.7%; with ANGPTL2 (25 µM), -10.3%.

Take “TTAACAGAGCCATCCAGG (sugars l1 d15 l2, PS)”: the target mRNA inhibition in the data set with ANGPTL2 (5 µM) was determined as 24.9%; with ANGPTL2 (25 µM), 25.4%.

Take “CGGTTGTAGGTGGGTGG (sugars l1 d14 l2, PS)”: the target mRNA inhibition with ANGPTL2 (5 µM) is 21.1%; with ANGPTL2 (25 µM), -3.3%.

With TGTAGGTGCACTTGTC (sugars l2 d12 l2, PS), the target mRNA inhibition with ANGPTL2 (5 µM) was 28.5%; with ANGPTL2 (25 µM), 49.4%.

With TGATGCGGTTGTAGGT (sugars l2 d12 l2, PS), in the data set with ANGPTL2 (5 µM), the target mRNA inhibition stood at 73.2%.

Consider “AGTTCTGTTTGATCTTC (sugars l2 d11 l4, PS)”, for which the target mRNA inhibition with ANGPTL2 (5 µM) was determined as 52.7%; in the data set with ANGPTL2 (25 µM), 69.2%.

For the sequence “TGGTTGATGATGCGGTTG (sugars l2 d14 l2, PS)”, the results for the target mRNA inhibition with ANGPTL2 (5 µM) and with ANGPTL2 (25 µM) were 77.6% and 86.1%, respectively.

As to “TGGGCATAGTGGGCAGA (sugars l1 d14 l2, PS)”, the target mRNA inhibition with ANGPTL2 (5 µM) stood at 58.9%; in the data set with ANGPTL2 (25 µM), 64%.

For “ACACCCAAGACTCAGAT (sugars l4 d11 l2, PS)”, the target mRNA inhibition with ANGPTL2 (5 µM) came to 6.49%; in the data set with ANGPTL2 (25 µM), 5.75%.

Take “CCAGGCAGTTTCTTATG (sugars l1 d13 l3, PS)”: the target mRNA inhibition with ANGPTL2 (5 µM) is 16.4%; with ANGPTL2 (25 µM), 25.8%.

Regarding “CCTTTTCACTCTCAATAT (sugars l3 d13 l2, PS)”, the target mRNA inhibition in the data set with ANGPTL2 (5 µM) was determined as 36.8%; with ANGPTL2 (25 µM), 43.5%.

As to “AGGGGCTATGACTATCC (sugars l1 d14 l2, PS)”, the target mRNA inhibition with ANGPTL2 (5 µM) stood at 41.3%; with ANGPTL2 (25 µM) it was 45.9%.

“TCCAGGGTGGTGAACTG (sugars l2 d13 l2, PS)”: the target mRNA inhibition with ANGPTL2 (5 µM) is 25.1%; with ANGPTL2 (25 µM), 23.2%.

For the sequence “TTGATGATGCGGTTGTAGGT (sugars l1 d17 l2, PS)”, the values for the target mRNA inhibition with ANGPTL2 (5 µM) and with ANGPTL2 (25 µM) were 41.3% and 48.7%, respectively.

Regarding “AGCTCATTGTTGAGCAG (sugars l1 d13 l3, PS)”, the target mRNA inhibition turned out to be 4.81% in the data set with ANGPTL2 (5 µM) and 13.2% with ANGPTL2 (25 µM).

For “TTAGTGATTAGGTCAA (sugars kkddddddddkekekk, PS)”, the target mRNA inhibition with KRAS (A431, 2 µM) was 33%.

For “AACCATTTTGAGATTCCC (sugars l3 d13 l2, PS)”, the target mRNA inhibition stood at 40.2% with ANGPTL2 (5 µM) and 52.7% with ANGPTL2 (25 µM).

With GCATGTAAATATAGCC (sugars k3 d10 k3, PS), the target mRNA inhibition with KRAS (A431, 2 µM) was 11%.

In the case of “TGATTTGTCAGCAGGA (sugars kkddddddddkekekk, PS)”, in the data set with KRAS (A431, 2 µM), the target mRNA inhibition is 32% and 17%.

For “TAGTGATTAGGTCAAA (sugars kkddddddddddkeke, PS)”, in the data set with KRAS (A431, 2 µM), the target mRNA inhibition amounted to 34%.

Consider GAGCCTTTACATGCCG (sugars l2 d12 l2, PS), for which the target mRNA inhibition with ANGPTL2 (5 µM) was found to be 41%; with ANGPTL2 (25 µM), 66.8%.

For GTTTCACATAGCAATT (sugars k3 d10 k3, PS), the target mRNA inhibition with KRAS (A431, 2 µM) came to 29%.

As for “ACCAGTGTTAAGAGAA (sugars kkkdddddddddkeke, PS)”, the target mRNA inhibition in the data set with KRAS (A431, 2 µM) came out at 40%.

Regarding “CCATTTATGTGACTAG (sugars kkdddddddddkdkdk, PS)”, the target mRNA inhibition in the data set with KRAS (A431, 2 µM) came to 43%.

Consider “ACCAGTGTTAAGAGAA (sugars kdddddddddkekeke, PS)”, for which the target mRNA inhibition with KRAS (A431, 2 µM) was determined as 50%.

On to “ACCAGTGTTAAGAGAA (sugars kkkddddddddkekek, PS)”, for which the target mRNA inhibition with KRAS (A431, 2 µM) came out at 51%.

As for “CCATTCAAAGTTCACA (sugars kkddddddddddkeke, PS)”, the target mRNA inhibition with KRAS (A431, 0.185 µM) amounted to 19%; with KRAS (A431, 0.556 µM) it was 32%; in the data set with KRAS (A431, 1.667 µM), 50%; with KRAS (A431, 2 µM) it was 63%; with KRAS (A431, 5 µM), 67%; with KRAS (NCI-H460, 0.037 µM), 54.7%.
